Like-named read-outs stand apart in the source and are kept apart here.
Legend:
[1] = target: recombinant human Mcl-1 (residues 171-327) / Bim interaction (Homo sapiens (Human), UniProt Q07820); assay: biochemical; assay type: binding; conditions: read-out: Mcl-1 HTRF IC50
[2] = test system: human multiple myeloma cell line, OPM-2; assay: Cell viability assay (OPM-2 10 FBS), CellTiter-Glo; assay type: cell-based
How it was run: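 Steps: plate cells at 3000/well in 10% FBS growth medium, add serially diluted compound, incubate 16 h at 37 °C with 5% CO2, add detection reagent and read luminescence after 25 min. A 4-parameter logistic model gives IC50.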

[3] = 0.1 nM Mcl-1(171-327), 0.05 nM biotin-Bim (51-76)
[4] = Homo sapiens, OPM-2, 16 h, read-out: OPM-2 10% FBS IC50 IP, OPM-2 cells, 10% FBS, 16 h incubation
[5] = TR-FRET, Mcl-1(171-327) / biotin-Bim (51-76)
[6] = Homo sapiens, OPM-2, 16 h, read-out: OPM-2 10% FBS IC50 IP, OPM-2 cells, 10% FBS, 16 h, CellTiter-Glo
[7] = read-out: OPM-2 10% FBS IC50 IP, OPM-2 cells, 10% FBS, 16 h, CellTiter-Glo
[8] = read-out: OPM-2 10% FBS IC50 IP, OPM-2 cells, 10% FBS, 16 h incubation

recombinant human Mcl-1 (residues 171-327) / Bim interaction, sequence (Q07820 171-327): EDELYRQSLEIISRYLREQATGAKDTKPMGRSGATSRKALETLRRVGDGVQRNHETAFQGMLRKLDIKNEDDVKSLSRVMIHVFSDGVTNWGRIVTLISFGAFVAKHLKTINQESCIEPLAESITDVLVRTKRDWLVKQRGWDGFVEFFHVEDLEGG

Compound	IC50 [1, 3] [nM]	IC50 [2, 4] [nM]	IC50 [1, 5] [nM]	further results
CO[C@@]1(CN2CCN3C(=O)COC[C@@H]3C2)/C=C/C[C@H](C)[C@@H](C)S(=O)(=O)NC(=O)c2ccc3c(c2)N(C[C@@H]2CC[C@H]21)C[C@@]1(CCCc2cc(Cl)ccc21)CO3 [Example 141, (1S,3′R,6′R,7′S,8′E,11′S,12′R)-6-chloro-7′-methoxy-11′,12′-dimethyl-7′-(((9aS)-4-oxohexahydropyrazino[2,1-c][1,4]oxazin-8(1H)-yl)methyl)-3,4-dihydro-2H,15′H-spiro[naphthalene-1,22′-[20]oxa[13]thia[1,14]diazatetracyclo [14.7.2.0~3,6~.0~19,24~]pentacosa[8,16,18,24]tetraen]-15′-one 13′,13′-dioxide]	0.152	367		
Cc1cc(C[C@]2(O)/C=C/C[C@H](C)[C@@H](C)S(=O)(=O)NC(=O)c3ccc4c(c3)N(C[C@@H]3CC[C@H]32)C[C@@]2(CCCc3cc(Cl)ccc32)CO4)no1 [Example 100541, (1S,3′R,6′R,7′S,8′E,11′S,12′R)-6-chloro-7′-hydroxy-11′,12′-dimethyl-7′-((5-methyl-1,2-oxazol-3-yl)methyl)-3,4-dihydro-2H,15′H-spiro[naphthalene-1,22′-[20]oxa[13]thia[1,14]diazatetracyclo [14.7.2.0~3,6~.0~19,24~]pentacosa[8,16,18,24]tetraen]-15′-one 13′,13′-dioxide]			0.76	IC50 [2, 6]: 826 nM
CO[C@@]1(CN2CCN(CC3OCCO3)CC2)/C=C/C[C@H](C)[C@@H](C)S(=O)(=O)NC(=O)c2ccc3c(c2)N(C[C@@H]2CC[C@H]21)C[C@@]1(CCCc2cc(Cl)ccc21)CO3 [Example 309, (1S,3′R,6′R,7′S,8′E,11′S,12′R)-6-chloro-7′-((4-(1,3-dioxolan-2-ylmethyl)-1-piperazinyl)methyl)-7′-methoxy-11′,12′-dimethyl-3,4-dihydro-2H,15′H-spiro[naphthalene-1,22′-[20]oxa[13]thia[1,14]diazatetracyclo [14.7.2.0~3,6~.0~19,24~]pentacosa[8,16,18,24]tetraen]-15′-one 13′,13′-dioxide]	0.215	64		
C[C@@H]1[C@@H](C)CCC[C@@](O)(COS(C)(=O)=O)[C@@H]2CC[C@H]2CN2C[C@@]3(CCCc4cc(Cl)ccc43)COc3ccc(cc32)C(=O)NS1(=O)=O [Example 100283, ((1S,3′R,6′R,7′S,11′S,12′R)-6-chloro-7′-hydroxy-11′,12′-dimethyl-13′,13′-dioxido-15′-oxo-3,4-dihydro-2H-spiro[naphthalene-1,22′-[20]oxa[13]thia[1,14]diazatetracyclo [14.7.2.0~3,6~.0~19,24~]pentacosa[16,18,24]trien]-7′-yl)methyl methanesulfonate]				IC50 [1]: 0.143 nM; IC50 [2, 7]: 806 nM
COCC[C@@H]1[C@@H](C)C/C=C/[C@@](C=O)(OC)[C@@H]2CC[C@H]2CN2C[C@@]3(CCCc4cc(Cl)ccc43)COc3ccc(cc32)C(=O)NS1(=O)=O [Example 100571, (1S,3′R,6′R,7′R,8′E,11′S,12′R)-6-chloro-7′-methoxy-12′-(2-methoxyethyl)-11′-methyl-15′-oxo-3,4-dihydro-2H-spiro[naphthalene-1,22′-[20]oxa[13]thia[1,14]diazatetracyclo [14.7.2.0~3,6~.0~19,24~]pentacosa[8,16,18,24]tetraene]-7′-carbaldehyde 13′,13′-dioxide]			0.076	IC50 [2, 6]: 922 nM
(1S,3′R,6′R,7′S,8′E, 11′S,12′R)-6-chloro-12′-(2-chloroethyl)-7′-((9aS)-hexahydropyrazino[2,1-c][1,4]oxazin-8(1H)-ylmethyl)-7′-methoxy-11′-methyl-3,4-dihydro-2H,15′H-spiro[naphthalene-1,22′-[20]oxa[13]thia[1,14]diazatetracyclo[14.7.2.0-3,6˜.0˜19,24˜]pentacosa[8,16,18,24]tetraen]-15′-one 13′,13′-dioxide [Example 366]	0.248			IC50 [2, 8]: 133 nM
COC[C@H]1CN(C[C@]2(OC)/C=C/C[C@H](C)[C@@H](C)S(=O)(=O)NC(=O)c3ccc4c(c3)N(C[C@@H]3CC[C@H]32)C[C@@]2(CCCc3cc(Cl)ccc32)CO4)CCO1 [Example 199, (1S,3′R,6′R,7′S,8′E,11′S,12′R)-6-chloro-7′-methoxy-7′-(((2R)-2-(methoxymethyl)-4-morpholinyl)methyl)-11′,12′-dimethyl-3,4-dihydro-2H,15′H-spiro[naphthalene-1,22′-[20]oxa[13]thia[1,14]diazatetracyclo [14.7.2.0~3,6~.0~19,24~]pentacosa[8,16,18,24]tetraen]-15′-one 13′,13′-dioxide]	0.119	208		
C[C@@H]1[C@@H](C)C/C=C/[C@](O)(c2cnccc2F)[C@@H]2CC[C@H]2CN2C[C@@]3(CCCc4cc(Cl)ccc43)COc3ccc(cc32)C(=O)NS1(=O)=O (stereo in doubt) [Example 100537]			0.115	IC50 [2, 6]: 256 nM
C[C@@H]1[C@@H](C)C/C=C/[C@@](O)(CC(=O)N(C)C)[C@@H]2CC[C@H]2CN2C[C@@]3(CCCc4cc(Cl)ccc43)COc3ccc(cc32)C(=O)NS1(=O)=O [Example 100077, 2-((1S,3′R,6′R,7′S,8′E,11′S,12′R)-6-chloro-7′-hydroxy-11′,12′-dimethyl-13′,13′-dioxido-15′-oxo-3,4-dihydro-2H-spiro[naphthalene-1,22′-[20]oxa[13]thia[1,14]diazatetracyclo [14.7.2.0~3,6~.0~19,24~]pentacosa[8,16,18,24]tetraen]-7′-yl)-N,N-dimethylacetamide]			0.19	IC50 [2, 7]: 52 nM
C[C@@H]1[C@@H](C)CCC[C@](O)(C2CCN(C)CC2)[C@@H]2CC[C@H]2CN2C[C@@]3(CCCc4cc(Cl)ccc43)COc3ccc(cc32)C(=O)NS1(=O)=O [Example 100387, (1S,3′R,6′R,7′S,11′S,12′R)-6-chloro-7′-hydroxy-11′,12′-dimethyl-7′-(1-methyl-4-piperidinyl)-3,4-dihydro-2H,15′H-spiro[naphthalene-1,22′-[20]oxa[13]thia[1,14]diazatetracyclo [14.7.2.0~3,6~.0~19,24~]pentacosa[16,18,24]trien]-15′-one 13′,13′-dioxide]			0.175	IC50 [2, 6]: 3760 nM
COCCN(C)S(=O)(=O)C[C@]1(O)CCC[C@H](C)[C@@H](C)S(=O)(=O)NC(=O)c2ccc3c(c2)N(C[C@@H]2CC[C@H]21)C[C@@]1(CCCc2cc(Cl)ccc21)CO3 [Example 100166, 1-((1S,3′R,6′R,7′S,11′S,12′R)-6-chloro-7′-hydroxy-11′,12′-dimethyl-13′,13′-dioxido-15′-oxo-3,4-dihydro-2H-spiro[naphthalene-1,22′-[20]oxa[13]thia[1,14]diazatetracyclo [14.7.2.0~3,6~.0~19,24~]pentacosa[16,18,24]trien]-7′-yl)-N-(2-methoxyethyl)-N-methylmethanesulfonamide]			1.77	IC50 [2, 7]: 945 nM
COCCN(C)C1CN(C[C@@]2(OC)/C=C/C[C@H](C)[C@@H](C)S(=O)(=O)NC(=O)c3ccc4c(c3)N(C[C@@H]3CC[C@H]32)C[C@@]2(CCCc3cc(Cl)ccc32)CO4)C1 [Example 94, (1S,3′R,6′R,7′R,8′E,11′S,12′R)-6-chloro-7′-methoxy-7′-((3-((2-methoxyethyl)(methyl)amino)-1-azetidinyl)methyl)-11′,12′-dimethyl-3,4-dihydro-2H,15′H-spiro[naphthalene-1,22′-[20]oxa[13]thia[1,14]diazatetracyclo [14.7.2.0~3,6~.0~19,24~]pentacosa[8,16,18,24]tetraen]-15′-one 13′,13′-dioxide]	0.191	140		
CO[C@@]1(CN2CCN([C@@H]3CCOC3)CC2)/C=C/C[C@H](C)[C@@H](C)S(=O)(=O)NC(=O)c2ccc3c(c2)N(C[C@@H]2CC[C@H]21)C[C@@]1(CCCc2cc(Cl)ccc21)CO3 (single isomer, unassigned) [Example 286]	0.155			IC50 [2, 8]: 50 nM
CO[C@@]1(CN2CC(CO)(CO)C2)/C=C/C[C@H](C)[C@@H](C)S(=O)(=O)NC(=O)c2ccc3c(c2)N(C[C@@H]2CC[C@H]21)C[C@@]1(CCCc2cc(Cl)ccc21)CO3 [Example 206, (1S,3′R,6′R,7′S,8′E,11′S,12′R)-7′-((3,3-bis(hydroxymethyl)-1-azetidinyl)methyl)-6-chloro-7′-methoxy-11′,12′-dimethyl-3,4-dihydro-2H,15′H-spiro[naphthalene-1,22′-[20]oxa[13]thia[1,14]diazatetracyclo [14.7.2.0~3,6~.0~19,24~]pentacosa[8,16,18,24]tetraen]-15′-one 13′,13′-dioxide]	0.223	6300		
C[C@@H]1[C@@H](C)CCC[C@](O)(COCCN(C)C)[C@@H]2CC[C@H]2CN2C[C@@]3(CCCc4cc(Cl)ccc43)COc3ccc(cc32)C(=O)NS1(=O)=O (stereo in doubt) [Example 100196]			0.461	IC50 [2, 7]: 358 nM
(1 S,3′R,6′R,7′R,8′E,11′S,12′R)-6-chloro-7′-methoxy-11′-methyl-12′-(2-(((2-methyl-2-propanyl)(diphenyl)silyl)oxy)ethyl)-7′-((9aR)-octahydro-2H-pyrido[1,2-a]pyrazin-2-ylmethyl)-3,4-dihydro-2H, 15′H-spiro[naphthalene-1,22′-[20]oxa[13]thia[1,14]diazatetracyclo[14.7.2.0-3,6˜.0˜19,24˜]pentacosa[8,16,18,24]tetraen]-15′-one 13′,13′-dioxide [Example 359]	2.08			IC50 [2, 8]: > 33300 nM

— US10821115B2, “Compounds that inhibit Mcl-1 protein” (priority 2017, dated 2020)
